# Measured values: publication PMC9596378, “Discovery and molecular basis of subtype-selective cyclophilin inhibitors” (Nature Chemical Biology, 2022)
# Like-named read-outs stand apart in the source and are kept apart here.
# Legend:
# CypD = CypD (Homo sapiens, UniProt P30405); test: Chymotrypsin coupled prolyl-isomerase assay
# Description: Five microliters of compound pre-dissolved in 5% DMSO/assay buffer was then added to appropriate wells and incubated at 2–3 °C for 5 min. Five microliters of 0.5 mM α-chymotrypsin from bovine pancreas (Type II, lyophilized powder, Millipore-Sigma) in 20% 1 mM HCl/Assay Buffer was then added to each well and incubated at 2–3 °C for 5 min. The plate was then quickly transferred to a FLIPR Tetra High-Throughput Cellular Screening System (Molecular Devices). Using the internal liquid handling system of the FLIPR, 1 µL 0.5 mM Suc-AAPF-AMC (Chymotrypsin Substrate II, Millipore-Sigma) dissolved in 0.55 M LiCl/2,2,2-trifluoroethanol was added to each well, which was then mixed for 5 s, followed by immediate fluorescence measurements every 1 s for 330 s using a 360–380 nm excitation LED module and a 400–460 nm emission filter. […] Raw fluorescence data was analyzed by non-linear regression analysis with Prism v.9 by fitting one-phase association curves to each well. […] Rate constants calculated for each well (s^−1) were then normalized to substrate only (no prolyl-isomerase) and enzyme + substrate only controls.
# CypA = target: T1, CypA (Homo sapiens, UniProt P62937); test: Chymotrypsin coupled prolyl-isomerase assay; type: biochemical; conditions: wild-type CypA; read-out: Wild-Type Cyclophilin Prolyl Isomerase Inhibition IC50 Values, CypA
# T1 construct: PPIA (UniProtKB Entry P62937: residues 1–165); made in house; host or cells: E. coli BL21(DE3)
# T1 sequence (P62937 whole entry, the tested form may be a part): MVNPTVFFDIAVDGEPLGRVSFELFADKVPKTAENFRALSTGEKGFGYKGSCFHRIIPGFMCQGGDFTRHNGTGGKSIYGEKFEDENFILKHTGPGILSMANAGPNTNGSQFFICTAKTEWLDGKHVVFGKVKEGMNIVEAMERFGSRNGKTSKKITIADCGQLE
# Description: (§1) Adapting a previously described protocol, with an Agilent Bravo Velocity 11 with a 384ST head, 90 µL assay buffer (25 mM HEPES pH 7.3, 100 mM NaCl, 0.01% Triton X-100) containing 5.28 nM cyclophilin was added into a flat, clear-bottom, black 384-well plate pre-chilled in a Corning CoolBox at 2–3 °C. Five microliters of compound pre-dissolved in 5% DMSO/assay buffer was then added to appropriate wells and incubated at 2–3 °C for 5 min. Five microliters of 0.5 mM α-chymotrypsin from bovine pancreas (Type II, lyophilized powder, Millipore-Sigma) in 20% 1 mM HCl/Assay Buffer was then added to each well and incubated at 2–3 °C for 5 min. The plate was then quickly transferred to a FLIPR Tetra High-Throughput Cellular Screening System (Molecular Devices). Using the internal liquid handling system of the FLIPR, 1 µL 0.5 mM Suc-AAPF-AMC (Chymotrypsin Substrate II, Millipore-Sigma) dissolved in 0.55 M LiCl/2,2,2-trifluoroethanol was added to each well, which was then mixed for 5 s, followed by immediate fluorescence measurements every 1 s for 330 s using a 360–380 nm excitation LED module and a 400–460 nm emission filter. Final concentrations of the plate include 5 nM cyclophilin, 0.25% DMSO, 25 µM α-chymotrypsin, 5 µM Suc-AAPF-AMC. Raw fluorescence data was analyzed by non-linear regression analysis with Prism v.9 by fitting one-phase association curves to each well. […] Rate constants calculated for each well (s^−1) were then normalized to substrate only (no prolyl-isomerase) and enzyme + substrate only controls. IC50 values were calculated as the value at which 50% inhibition was achieved on the non-linear regression fitted curve of each compound.
# CypC = target: T2, CypC (Homo sapiens, UniProt P45877); test: Chymotrypsin coupled prolyl-isomerase assay; type: biochemical
# T2 construct: PPIC (UniProtKB Entry P45877: residues 24–212); host or cells: E. coli BL21(DE3)
# T2 sequence (P45877 24-212): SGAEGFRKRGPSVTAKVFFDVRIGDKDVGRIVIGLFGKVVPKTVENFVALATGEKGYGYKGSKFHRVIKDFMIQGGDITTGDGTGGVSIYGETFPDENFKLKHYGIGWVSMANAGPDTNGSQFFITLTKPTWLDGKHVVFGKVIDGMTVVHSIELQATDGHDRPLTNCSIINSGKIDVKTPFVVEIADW
# Description: as §1
# CypE = target: T3, CypE (Homo sapiens, UniProt Q9UNP9); test: Chymotrypsin coupled prolyl-isomerase assay; type: biochemical; conditions: wild-type CypE; read-out: Wild-Type Cyclophilin Prolyl Isomerase Inhibition IC50 Values, CypE
# T3 construct: PPIE (UniProtKB Entry Q9UNP9: residues 131–301); host or cells: E. coli BL21(DE3)
# T3 sequence (Q9UNP9 131-301): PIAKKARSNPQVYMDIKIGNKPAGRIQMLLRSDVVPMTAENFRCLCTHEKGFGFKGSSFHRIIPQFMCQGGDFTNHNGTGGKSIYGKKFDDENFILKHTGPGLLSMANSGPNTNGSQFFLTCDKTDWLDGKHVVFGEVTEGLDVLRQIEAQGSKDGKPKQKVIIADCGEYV
# Description: as §1
# CypG = target: T4, CypG (Homo sapiens, UniProt Q13427); test: Chymotrypsin coupled prolyl-isomerase assay; type: biochemical; conditions: wild-type CypG; read-out: Wild-Type Cyclophilin Prolyl Isomerase Inhibition IC50 Values, CypG
# T4 construct: PPIG (UniProtKB Entry Q13427: residues 1–179); His6 with thrombin site (pET28a LIC leader) (N); host or cells: E. coli BL21(DE3)
# T4 sequence (Q13427 1-179): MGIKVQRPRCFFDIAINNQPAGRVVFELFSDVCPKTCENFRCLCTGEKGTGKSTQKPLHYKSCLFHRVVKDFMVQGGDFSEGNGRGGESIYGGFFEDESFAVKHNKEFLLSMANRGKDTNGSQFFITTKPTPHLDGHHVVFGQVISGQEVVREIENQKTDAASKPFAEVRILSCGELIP
# Description: as §1
# CypH = target: T5, CypH (Homo sapiens, UniProt O43447); test: Chymotrypsin coupled prolyl-isomerase assay; type: biochemical
# T5 construct: PPIH (UniProtKB Entry O43447: residues 1–177); His6 with TEV site (2BT vector leader) (N); made in house; host or cells: E. coli BL21(DE3)
# T5 sequence (O43447 whole entry, the tested form may be a part): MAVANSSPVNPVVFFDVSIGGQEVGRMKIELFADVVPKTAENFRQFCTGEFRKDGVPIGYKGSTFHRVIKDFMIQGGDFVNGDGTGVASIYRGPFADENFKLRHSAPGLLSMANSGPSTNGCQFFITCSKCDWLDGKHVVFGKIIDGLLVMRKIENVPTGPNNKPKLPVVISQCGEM
# Description: as §1
# CypB = target: T6, CypB (Homo sapiens, UniProt P23284); test: biochemical; conditions: wild-type CypB; read-out: Wild-Type Cyclophilin Prolyl Isomerase Inhibition IC50 Values, CypB
# T6 construct: PPIB (UniProtKB Entry P23284: residues 34–216); His6 with TEV site (2BT vector leader) (N); made in house; host or cells: E. coli BL21(DE3)
# T6 sequence (P23284 34-216): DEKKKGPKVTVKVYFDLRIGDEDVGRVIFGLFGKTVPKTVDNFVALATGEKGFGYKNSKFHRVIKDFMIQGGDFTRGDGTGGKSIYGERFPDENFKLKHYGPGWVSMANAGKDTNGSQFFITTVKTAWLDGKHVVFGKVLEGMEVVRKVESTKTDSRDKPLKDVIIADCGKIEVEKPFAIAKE
# Description: as §1
# Cyp40 = Cyp40 (Homo sapiens, UniProt Q08752); test: Chymotrypsin coupled prolyl-isomerase assay
# Sequence of Cyp40 (Q08752 1-183): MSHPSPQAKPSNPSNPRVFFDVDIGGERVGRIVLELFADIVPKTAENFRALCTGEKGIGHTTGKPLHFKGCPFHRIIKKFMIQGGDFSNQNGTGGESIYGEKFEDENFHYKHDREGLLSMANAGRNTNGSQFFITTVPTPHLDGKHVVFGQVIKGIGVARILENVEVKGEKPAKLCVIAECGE
# Description: as §1
# NKTR = target: T7, NKTR (Homo sapiens, UniProt P30414); test: Chymotrypsin coupled prolyl-isomerase assay; type: biochemical
# T7 construct: NKTR (UniProtKB Entry P30414: residues 7–179); host or cells: E. coli BL21(DE3)
# T7 sequence (P30414 7-179): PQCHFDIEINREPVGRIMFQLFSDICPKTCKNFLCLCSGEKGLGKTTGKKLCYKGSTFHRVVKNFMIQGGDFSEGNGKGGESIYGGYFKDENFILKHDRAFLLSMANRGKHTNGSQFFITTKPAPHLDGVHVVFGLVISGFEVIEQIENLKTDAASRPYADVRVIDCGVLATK
# PPIL1 = target: T8, PPIL1 (Homo sapiens, UniProt Q9Y3C6); test: Chymotrypsin coupled prolyl-isomerase assay; type: biochemical; conditions: wild-type PPIL1; read-out: Wild-Type Cyclophilin Prolyl Isomerase Inhibition IC50 Values, PPIL1
# T8 construct: PPIL1 (UniProtKB Entry Q9Y3C6: residues 1–166); made in house; host or cells: E. coli BL21(DE3)
# T8 sequence (Q9Y3C6 1-166): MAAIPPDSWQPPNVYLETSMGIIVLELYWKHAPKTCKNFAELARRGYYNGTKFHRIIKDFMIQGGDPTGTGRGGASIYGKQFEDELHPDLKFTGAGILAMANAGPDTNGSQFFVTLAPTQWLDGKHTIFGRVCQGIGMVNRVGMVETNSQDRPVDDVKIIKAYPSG
# PPWD1 = target: T9, PPWD1 (Homo sapiens, UniProt Q96BP3); test: Chymotrypsin coupled prolyl-isomerase assay; type: biochemical
# T9 construct: PPWD1 (UniProtKB Entry Q96BP3: residues 473–646); host or cells: E. coli BL21(DE3)
# T9 sequence (Q96BP3 473-646): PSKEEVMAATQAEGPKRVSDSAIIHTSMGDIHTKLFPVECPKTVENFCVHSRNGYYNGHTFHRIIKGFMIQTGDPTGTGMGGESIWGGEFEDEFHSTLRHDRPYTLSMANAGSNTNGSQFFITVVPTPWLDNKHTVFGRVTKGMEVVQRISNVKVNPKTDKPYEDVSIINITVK
# Description: Five microliters of compound pre-dissolved in 5% DMSO/assay buffer was then added to appropriate wells and incubated at 2–3 °C for 5 min. Five microliters of 0.5 mM α-chymotrypsin from bovine pancreas (Type II, lyophilized powder, Millipore-Sigma) in 20% 1 mM HCl/Assay Buffer was then added to each well and incubated at 2–3 °C for 5 min. The plate was then quickly transferred to a FLIPR Tetra High-Throughput Cellular Screening System (Molecular Devices). Using the internal liquid handling system of the FLIPR, 1 µL 0.5 mM Suc-AAPF-AMC (Chymotrypsin Substrate II, Millipore-Sigma) dissolved in 0.55 M LiCl/2,2,2-trifluoroethanol was added to each well, which was then mixed for 5 s, followed by immediate fluorescence measurements every 1 s for 330 s using a 360–380 nm excitation LED module and a 400–460 nm emission filter. […] Raw fluorescence data was analyzed by non-linear regression analysis with Prism v.9 by fitting one-phase association curves to each well. Analyses were halted after the calculated maximum fluorescent value owing to observed fluorescent bleaching during the sustained fluorescent plateau. Rate constants calculated for each well (s^−1) were then normalized to substrate only (no prolyl-isomerase) and enzyme + substrate only controls.
# HeLa cells = test: Fluorescence microscopy of Cy5-conjugated compounds; type: cell-based, human
# Description: Cells were seeded into 96-well, black, clear-bottom, TC-treated plates, in DMEM supplemented with 10% FBS 24 h prior at a density where wells were ~80% confluent at the time of the experiment. Medium was removed and cells were then stained with 50 µL mixture containing Cy5-labeled compound (6 µM) in Kreb’s ringer solution HEPES buffered pH 7.2 (KRB), for 1 h at 37 °C. Then, 50 µL Hoechst 33342 (8 µM) and Mitotracker Green FM (0.1 µM) in KRB was added directly to wells containing cells and incubated for 15 min at 37 °C. Medium was removed and cells were washed twice with 100 µL KRB. Cells were then kept adherent to the wells in 100 µL KRB for imaging. Fluorescence microscopy was conducted on an Opera Phenix Plus High-Content Screening System, using Alexa 488, Alexa 647, and Hoescht 33342 channels. Images were analyzed using Harmony v.4.9.
# [1] = read-out: IC50 CypD, prolyl-isomerase inhibition, 5 nM cyclophilin, Suc-AAPF-AMC, mean±s.e.m. of 3 technical replicates (B52, B53, C3A wild-type: mean±s.d. of 4 independent replicates)
# [2] = wild-type CypC, read-out: Wild-Type Cyclophilin Prolyl Isomerase Inhibition IC50 Values, CypC
# [3] = wild-type CypH, read-out: Wild-Type Cyclophilin Prolyl Isomerase Inhibition IC50 Values, CypH
# [4] = wild-type NKTR, read-out: Wild-Type Cyclophilin Prolyl Isomerase Inhibition IC50 Values, NKTR
# [5] = wild-type PPWD1, read-out: Wild-Type Cyclophilin Prolyl Isomerase Inhibition IC50 Values, PPWD1
# [6] = prolyl-isomerase inhibition, 5 nM cyclophilin, read-out: IC50 CypH
# [7] = read-out: Wild-Type Cyclophilin Prolyl Isomerase Inhibition IC50 Values, Cyp40, wild-type Cyp40
# [8] = prolyl-isomerase inhibition, 5 nM cyclophilin, read-out: IC50 PPWD1
# [9] = Wild-Type Cyclophilin Prolyl Isomerase Inhibition IC50 Values, Cyp40, wild-type Cyp40
# [10] = Wild-Type Cyclophilin Prolyl Isomerase Inhibition IC50 Values, CypD, wild-type CypD
# Sequence of CypD (P30405 45-207): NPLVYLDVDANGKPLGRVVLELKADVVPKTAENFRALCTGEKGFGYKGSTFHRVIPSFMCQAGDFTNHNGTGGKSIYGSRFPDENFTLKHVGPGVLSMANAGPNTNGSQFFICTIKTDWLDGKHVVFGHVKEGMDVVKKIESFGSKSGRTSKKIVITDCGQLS
IC50 (Cyp40; [9]) [nM],Compound,IC50 (CypD; [1]) [nM],IC50 (CypA) [nM],IC50 (CypC; [2]) [nM],IC50 (CypE) [nM],IC50 (CypG) [nM],IC50 (CypH; [3]) [nM],IC50 (CypB) [nM],IC50 (NKTR; [4]) [nM],IC50 (PPIL1) [nM],IC50 (PPWD1; [5]) [nM],other results
–,NCCOCCNC(=O)[C@@H]1CCNC(=O)/C=C/C(=O)N2CCC[C@](Cc3ccccc3)(C2)C(=O)N[C@@H](Cc2ccc(-c3ccc(/C=C/C(=O)O)cc3)cc2)C(=O)NCc2ccccc2CC(=O)N1 [Compound B24],1.9,10,1500,4,11000,> 50000,5,13000,20,6000,"IC50 (Cyp40): 150 nM; IC50 (NKTR; prolyl-isomerase inhibition, 5 nM cyclophilin, read-out: IC50 NKTR): ~13000 nM"
–,"CC(=O)NCCNC(=O)CCCCCN1\C(=C/C=C/C=C/C2=[N+](C)c3ccccc3C2(C)C)C(C)(C)c2ccccc21 [Cy5-enAc, reference compound]",> 2000,–,–,–,–,–,–,–,–,–,plasma membrane permeability / mitochondrial localization (in words) (HeLa cells): good mitochondrial localization
–,NCCOCCNC(=O)[C@@H]1CCNC(=O)/C=C/C(=O)N2CCC[C@](Cc3ccccc3)(C2)C(=O)N[C@@H](Cc2ccc(-c3ccc(CC(=O)O)cc3)cc2)C(=O)NCc2ccccc2CC(=O)N1 [Compound B22],40,700,14000,130,10000,100000,230,> 100000,600,50000,IC50 (CypH; [6]): ~100000 nM; IC50 (Cyp40; [7]): 1000 nM; IC50 (PPWD1; [8]): ~50000 nM
–,CC(=O)c1ccc(-c2ccc(C[C@@H]3NC(=O)[C@]4(Cc5ccccc5)CCCN(C4)C(=O)/C=C/C(=O)NCC[C@@H](C(=O)NCCOCCN)NC(=O)Cc4ccccc4CNC3=O)cc2)cc1 [Compound B15],38,400,380,150,1800,80000,80,4900,100,880,preference for CypD over CypC and Cyp40 (CypD): 2- to 20 fold; IC50 (CypH; [6]): ~80000 nM; IC50 (Cyp40; [7]): 60 nM
400,NCCOCCNC(=O)C1CCNC(=O)C=CC(=O)N2CCCC(Cc3ccccc3)(C2)C(=O)NC(Cc2ccco2)C(=O)NCc2ccccc2CC(=O)N1 (stereo not shown) [Compound A26],–,1100,530,800,840,2700,100,4200,600,3400,IC50 (CypD): 200 nM; increase of CypD potency relative to JOMBt (CypD): 85 fold
–,NCCOCCNC(=O)[C@@H]1CCNC(=O)/C=C/C(=O)N2CCC[C@](Cc3ccccc3)(C2)C(=O)N[C@@H](Cc2ccc(-c3ccc(C(=O)O)cc3)cc2)C(=O)NCc2ccccc2CC(=O)N1 [Compound B20],300,3100,60000,1600,> 100000,> 100000,2000,> 100000,1400,> 100000,"preference for CypD over CypC and Cyp40 (CypD): at least ninefold; IC50 (CypC; prolyl-isomerase inhibition, 5 nM cyclophilin, read-out: IC50 CypC): ~60000 nM; IC50 (Cyp40): 2600 nM"
3000,NCCOCCNC(=O)C1CCNC(=O)C=CC(=O)N2CCCC(C2)C(=O)NC(Cc2ccc(C(=O)c3ccccc3)cc2)C(=O)NCc2ccccc2CC(=O)N1 (stereo not shown) [Compound A14],–,19000,9000,13000,> 100000,> 100000,2700,> 100000,10000,100000,IC50 (CypD; [10]): 3800 nM; IC50 (PPWD1; [8]): ~100000 nM
2600,CC12CCCN(C1)C(=O)C=CC(=O)NCCC(C(=O)NCCOCCN)NC(=O)Cc1ccccc1CNC(=O)C(Cc1ccco1)NC2=O (stereo not shown) [Compound A25],–,16000,6500,14000,1900,24000,900,8000,11000,40000,IC50 (CypD; [10]): 3600 nM
